A short description of data set [1]: Cell viability, MTS assay (FIGS. 11 and 12B). It counts as cell-based. The following applies: N:P ratio of 6 to 15; 24 h post transfection; relative to untreated cells. On the procedure:
(§1) FIG. 11: Cell viability of A) MCF-7 and MDA-MB-231 breast cancer cells, B) DU145 and PC-3 prostate cancer cells, and C) NCTC-929 fibroblast, HMEC-1 endothelial, and HaCaT keratinocyte cells following transfection with Peptide 10. Cells were transfected with Peptide 10 at a range of N:P ratios for 4 h before replacement with complete medium. After 24 h, cells were treated with MTS reagent for 2 h in dark conditions. A Bio-Tek Powerwave XS plate reader was then used to read absorbance at 490 nm with Gen5 software and any background absorbance was subtracted from readings. Untreated cells were considered to be 100% viable and viability under all conditions was calculated relative to this.
FIG. 12: Transfection efficiency and cell viability of nanoparticles comprising pEGFP-N1 and Peptide 10 assessed in ARPE human retinal cells. (A) Cells were transfected for 4 h with Peptide 10/pEGFP-N1 nanoparticles at a range of N:P ratios. Following transfection, medium was replaced with culture medium supplemented with 10% serum and incubated for 48 h before imaging using i) light and ii) fluorescence microscopy. Scale bar=400 μm. iii) Quantification of transfection efficiency was subsequently analysed by flow cytometry at 4% gating. […] A Bio-Tek Powerwave XS plate reader was then used to read absorbance at 490 nm with Gen5 software and any background absorbance was subtracted from readings. […]

The subject of data set [2] is HMEC-1 endothelial cells. As to the kind of experiment: Cell viability, MTS assay. It counts as cell-based. The conditions noted are these: irrespective of the N:P ratio. The method, then: as §1
(§2) Cell viability was evaluated by MTS assay with CellTiter 96 AQueous One Solution Cell Proliferation Assay (Promega, UK). MDA-MB-231 and PC-3 cells were seeded at a density of 1.5×10^4 cells per well and MCF-7, and DU145cells seeded at 1.2×10^4 cells per well, ARPE, NCTC-929, HMEC-1, and HaCaT cells seeded at 1.0×10^4, and allowed to adhere in a 96 well plate. Cells were transfected CellTiter reagent was added to each well 24 h post transfection to give a final volume of 10% and returned to the incubator for 2 h. Absorbance was read at 490 nm using a Bio-Tek Powerwave XS plate reader with Gen5 software and any background absorbance was subtracted from readings. Cell viability was expressed as a percentage of the untreated control where the untreated control is considered to be 100% viable.

In data set [3] the test system is HaCaT keratinocyte cells. Put plainly: Cell viability, MTS assay. The conditions noted are these: N:P ratios of 15 and 20. In kind it is cell-based. On the procedure: as §1, §2
Data set [4] concerns NCTC-929 fibroblast cells. As to the kind of experiment: Cell viability, MTS assay. It counts as cell-based. The conditions noted are these: N:P ratios of 15 and 20. On the procedure: as §1, §2
Background: Tetrazolium dyes change colour on reduction, which living cells bring about.

For data set [5], the system named is breast and prostate cancer cell lines. Put plainly: Cell viability, MTS assay. The conditions noted are these: even at a high N:P ratio of 20. In kind it is cell-based. The method, then: as §1, §2
In data set [6] the test system is pEGFP-N1. Put plainly: DNA complexation efficiency assay, Quant-iT PicoGreen. In kind it is binding. The method, then:
FIG. 2: DNA complexation efficiency assay using Quant-iT™ PicoGreen® reagent indicating the efficiency of A) Peptide 7, B) Peptide 8, C) Peptide 9, D) Peptide 10, E) Peptide 11 and F) Peptide 12 to complex 0.5 μg pEGFP-N1 (Accession Number: U55762.1) (a pDNA) at a range of N:P ratios. Peptide/pEGFP-N1 complexes were prepared at a range of N:P ratios from 1 to 20. 50 μl samples of each N:P ratio was pipetted into a 96-well plate with Quant-iT™ PicoGreen® reagent. Sample fluorescence was then analysed by excitation at 480 nm and the fluorescence emission intensity measured at 520 nm using a Synergy 2 Multi-Mode Microplate Reader. Fluorescence was then calculated as a percentage of the control and converted to the percentage DNA complexed.
Peptide complexes and composite complexes were prepared at a range of N:P ratios from 1 to 20 to complex 0.5 μg pEGFP-N1. Quant-iT™ PicoGreen® Reagent (Life Technologies, UK) was diluted 1:200 in TAE buffer and 50 μl was added to each 50 μl sample. Sample fluorescence was analysed by excitation at 480 nm and the fluorescence emission intensity measured at 520 nm using a Synergy 2 Multi-Mode Plate Reader. Fluorescence intensity of a naked pDNA control (an N:P ratio of 0) was taken as 100% fluorescence and 0% complexed, and any fluorescence detected from samples was taken to be un-complexed. […]

The subject of data set [7] is MCF-7 breast cancer cells. As to the kind of experiment: Transfection with peptide/pEGFP-N1 nanoparticles, flow cytometry. The following applies: N:P ratios of 6 to 10. It counts as cell-based. On the procedure: (§3) FIG. 5: Transfection efficiency of nanoparticles comprising pEGFP-N1 and A) Peptide 7, B) Peptide 8, C) Peptide 9, D) Peptide 10, E) Peptide 11 and F) Peptide 12 assessed in MCF-7 and
(§4) MDA-MB-231 breast cancer cells. Cells were transfected for 4 h with peptide/pEGFP-N1 nanoparticles at a range of N:P ratios. Following transfection, medium was replaced with DMEM supplemented with 10% FCS and incubated for 48 h before quantification of transfection efficiency by flow cytometry at 4% gating.
(§5) In order to assess the ability of peptide and composite nanoparticles to transfect cells, transfections were carried out in 96-well tissue culture plates.
(§6) MCF-7 and MDA-MB-231 breast cancer cells were seeded at a density of 2.25×10^4 and 2.5×10^4 cells per well respectively, and allowed to adhere overnight at 37° C. with 5% CO2 (FIG. 5).
(§7) Medium was replaced with OptiMEM (Invitrogen, UK) 2 h prior to transfection and the cells returned to the incubator at 37° C. with 5% CO2. […]
(§8) Transfected cells were washed with phosphate buffered saline (PBS) and 2× trypsin used to detach cells at 37° C. in 5% CO2 atmosphere. […] A FACScalibur system (BD Bioscience, UK) or Accuri C6 Plus (BD Bioscience, UK) were used for the detection of green fluorescent protein (GFP) expressing cells at 4% gating (to reduce interference of auto-fluorescence) and results are reported as mean±SEM, n=3.
(In general: In flow cytometry, cells or beads pass a laser one at a time.)

In data set [8] the test system is MDA-MB-231 breast cancer cells. The description is as above. In kind it is cell-based. The following applies: N:P ratios of 6 to 10. The method, then:
as §3, §4, §5, §6, §7, §8

Data set [9] concerns MCF-7 breast cancer cells. As to the kind of experiment: Endosomal escape study: transfection with and without chloroquine. The following applies: N:P 10, with and without 10 μM chloroquine, cell line not given. In kind it is cell-based. The method, then: (§9) FIG. 6: Transfection efficiency of nanoparticles comprising pEGFP-N1 and Peptides 7 to 12 assessed in A) MCF-7 and B) MDA-MB-231 breast cancer cells with and without chloroquine, a reagent known to facilitate endosomal escape. Cells were transfected for 4 h with peptide/pEGFP-N1 nanoparticles at N:P 10. 10 μM chloroquine was added to cells in appropriate wells along with the nanoparticles. Following transfection, medium was replaced with DMEM supplemented with 10% FCS and incubated for 48 h before quantification of transfection efficiency by flow cytometry at 4% gating. […] Statistical analysis was carried out using an unpaired t test (*=P<0.05, ** =P<0.01, ***=P<0.001)
(§10) In some instances, cells were treated with chloroquine (a reagent known to facilitate endosomal escape) (FIG. 6). For endosomal escape studies, 1 mM chloroquine (Sigma-Aldrich, UK) was added to the cells immediately before transfection, giving a final concentration of 10 μM chloroquine in the nanoparticle transfection mix.

The test system of data set [10] is MDA-MB-231 breast cancer cells. The description is as above. It counts as cell-based. The following applies: N:P 10, with and without 10 μM chloroquine, cell line not given. On the procedure:
as §9, §10

Data set [11] can be described thus: Nanoparticle hydrodynamic size, Malvern Zetasizer (DLS). In kind it is physicochemical. The conditions noted are these: low N:P ratios. The method, then:
FIG. 3: Mean hydrodynamic size and zeta potential of nanoparticles prepared with pEGFP-N1 and A) Peptide 7, B) Peptide 8, C) Peptide 9, D) Peptide 10, E) Peptide 11 or F) Peptide 12 at a range of N:P ratios. For example, at an N:P ratio of 10 with Peptide 7, nanoparticles comprise 0.5 μg of pEGFP-N1 and 5.7 μg Peptide 7. Nanoparticles were made up to 50 μl with molecular grade water and incubated for 30 min at room temperature before hydrodynamic size and zeta potential were measured using a Malvern Zetasizer Nano ZS instrument.
Peptide complexes (an N:P ratio of 0) and composite complexes were prepared at a range of N:P ratios from 1 to 20 to complex 0.5 μg pEGFP-N1. For example, at an N:P ratio of 10 with Peptide 7, nanoparticles comprise 0.5 μg of pEGFP-N1 and 5.7 μg Peptide 7. Nanoparticles were made up to 50 μl with molecular grade water and incubated for 30 min at room temperature before a Malvern Zetasizer Nano ZS instrument with DTS software (Malvern Instruments, UK) was used to measure the mean hydrodynamic particle size of nanoparticles. A 40 μl disposable microcuvette was used to measure the mean size by number of nanoparticles formed by Dynamic Light Scattering (DLS) at 20° C. Results were reported as mean±SEM, and all measurements were performed in triplicate.

Residues, ends and D or L forms follow the SMILES beside them.

In general, viability refers to the share of living cells, or the viability signal relative to a control. For `N=C(N)NCCC[C@H](NC(=O)[C@H](CCCNC(=N)N)NC(=O)[C@H](CCCNC(=N)N)NC(=O)[C@H](Cc1c[nH]c2ccccc12)NC(=O)[C@H](CCCNC(=N)N)NC(=O)[C@H](CCCNC(=N)N)NC(=O)[C@H](CCCNC(=N)N)NC(=O)[C@H](Cc1c[nH]cn1)NC(=O)[C@H](Cc1c[nH]cn1)NC(=O)[C@H](Cc1c[nH]cn1)NC(=O)[C@@H](N)CS)C(=O)N[C@@H](Cc1c[nH]cn1)C(=O)N[C@@H](Cc1c[nH]cn1)C(=O)N[C@@H](Cc1c[nH]cn1)C(=O)N[C@@H](CS)C(=O)O` [Peptide 10, CHHHRRRWRRRHHHC] (H-CHHHRRRWRRRHHHC-OH), in data set [1], the viability at 24 h is > 60%. Besides, the “cytotoxic effects (cell viability studies)” value in data set [2] is listed as “no cytotoxic effects”. Also, the “toxicity (cell viability studies)” value in data set [3] is given as “weak toxicity”; in data set [4], “weak toxicity”; in data set [5], “weak toxicity, if any”.

With “CEHHRRRWRRRHHEC [Peptide 12, comparative linear peptide, outside the scope of the invention]”, in [6], the maximum complexation efficiency is 70%. Also, the “% transfection” value in [7] and in data set [8] was > 10% in each case. Also, the “transfection regardless of chloroquine” value in [9] and in data set [10] was “Very low” throughout.

Consider “CRRRRWRRRRC [Peptide 11, comparative linear peptide, outside the scope of the invention]”, for which the “particle size as a function of N:P ratio” value in data set [11] is listed as “large particles form at lower N:P ratios”. For the same compound, the “transfection regardless of chloroquine” value in data set [9] and in data set [10] was “Very low” in each case.

For the origin of these results see patent publication US12049519B2, “Peptide for the delivery of anionic materials” (The Queen's University of Belfast, priority 2019, dated 2024).
